Results published in patent US7988972B2, “Immunoreactive peptides from Epstein-Barr virus” (Ortho-Clinical Diagnostics, Inc., priority 1993, dated 2011).
Where “and” joins values, the source holds several entries; their conditions need not be identical. Equal values may be shown once.

System: anti-EA-R and anti-EA-D sera
Experiment: ELISA, anti-EA-R and anti-EA-D sera against p17.1 and p50.10
Type: binding, human
Settings: individual sera, donors Anti-EA-negative (VCA-negative); values >0.2 significant
Method: ELISA. The ELISA for measuring specific antibodies to p17, p50 or to the synthetic peptides was performed as previously described in detail (Luka et al., J. Immunol. Methods, 67:145-156, 1984). Aliquots of different antigen concentrations were diluted in 0.5M Na2CO3 buffer, pH 9.5, added to wells in polystyrene microtiter plates (Linbro) and the plates incubated overnight at 4° C. Following this incubation period, the plates were washed 5× with Tris-HCl, pH 7.4, containing 0.05% Tween 20, 50 mM NaCl and 100 mg per liter albumin (Sigma) and dried for 20 minutes at room temperature. The plates were screened with different anti-EA-R or EA-D antibody positive human sera and the monoclonal antibody to p17 or p50 to identify the optimal concentration of antigen to be used in the serological studies. Alkaline-phosphatase-labelled goat anti-human IgG (Sigma) or goat anti-mouse IgG (Sigma) was used as the indicator system.
For the testing of human sera for antibodies to native p17, p50 or to the synthetic peptides, sera were diluted 1:10 in ELISA buffer, added in 0.1 ml volumes to wells coated with optimal concentrations of antigen and the plates were incubated for 60 minutes at room temperature. […] The reaction was allowed to proceed for 30 minutes at 37° C. and then the plates were screened directly with a microplate reader, TITERTEK MULTISKAN MC (Flow), at 420 nm. […]

ETFTETWNRFITHTE [p17.1, synthetic peptide from 17 Kd early antigen (EA-R) region of EBV]
ELISA (420 nm) OD readings: 0.024 and 0.071 and 0.027
